Laboratory results taken from patent publication US7915199B1, “Herbicidal composition” (Syngenta Crop Protection, Inc., priority 1999, dated 2011).

| SMILES | melting point |
| --- | --- |
| CCOC(=O)Oc1c(-c2c(CC)cc(C)cc2CC)c(=O)n2n1CCOCC2 | 114 to 116 °C |
| Cc1cc(C)c(-c2c(O)n3n(c2=O)CCOCC3)c(C(C)C)c1 | 214 to 216 °C |
| COc1cc(C)cc(Br)c1-c1c(O)n2n(c1=O)CCOCC2 | 217 to 219 °C |

Results, then the compound that gave them:

| melting point | SMILES |
| --- | --- |
| 182 to 185 °C | CCc1cc(C)cc(C)c1-c1c(O)n2n(c1=O)CCOCC2 |
| 110 to 113 °C | CCc1cc(C)cc(C)c1-c1c(OC(=O)C(C)(C)C)n2n(c1=O)CCOCC2 |
| 148 to 151 °C | Cc1cc(C)c(-c2c(OC(=O)C(C)(C)C)n3n(c2=O)CCOCC3)c(C(C)C)c1 |
| 173 to 175 °C | COc1cc(C)cc(Br)c1-c1c(OC(=O)C(C)(C)C)n2n(c1=O)CCOCC2 |
